What was measured:
Plasma = conditions: rat, iv, 4 h
Brain = conditions: rat, in vivo, iv, 4 h
in vivo [1] = conditions: Sprague-Dawley, rat, iv, 2 (umol/kg)/hr
in vivo [2] = conditions: Sprague-Dawley, rat, iv, 2 (umol/kg)/hr; remark: listed apart in the source
in vivo [3] = conditions: Sprague-Dawley, rat, iv, 2 (umol/kg)/hr; remark: listed apart in the source
in vitro = conditions: Sprague-Dawley, rat, plasma, iv, 2 (umol/kg)/hr
clinical = conditions: human, CSF and plasma
Description: Unbound CSF to plasma concentration ratio in human

[4] = rat, brain, iv, 4 h

In the case of `CC(NC(C)(C)C)C(=O)c1cccc(Cl)c1` (configuration not stated) [BUPROPION], the “Cp(f)” value (Plasma) is reported as 0.079 µM, the Vdu (Brain) is reported as 16 mL and the Kp at 4 h (in vivo [1]; brain and plasma) is reported as 9.78. It also gave a Kp uu at 4 h (in vivo [2]; brain and plasma) of 2, a Kp uu at 4 h (in vivo [3]; CSF and plasma) of 0.49 and a fraction unbound at 4 h (in vitro) of 0.31. For the same compound, the Kp uu (clinical) was 2.
In the case of `C=CCc1ccccc1OCC(O)CNC(C)C` (configuration not stated) [ALPRENOLOL], the “Cp(f)” value (Plasma) is reported as 0.28 µM, the Vdu (Brain) is reported as 50 mL and the Kp at 4 h (in vivo [1]; brain) is reported as 8.27. It also gave a Kp uu at 4 h (in vivo [2]; brain) of 0.38, a Kp uu at 4 h (in vivo [3]; csf) of 0.33 and a fraction unbound at 4 h (in vitro) of 0.44.
In the case of `COc1ccc2c3c1O[C@H]1[C@@H](O)C=C[C@H]4[C@@H](C2)N(C)CC[C@@]341` [CODEINE], the “Cp(f)” value (Plasma) is reported as 0.21 µM, the Vdu (Brain) is reported as 3.2 mL and the Kp at 4 h (in vivo [1]; brain) is reported as 2.7. For the same compound, the Kp uu at 4 h (in vivo [2]; brain) was 0.89, the Kp uu at 4 h (in vivo [3]; csf) was 0.54 and the fraction unbound at 4 h (in vitro) was 0.95. The Kp uu (clinical) was 0.79.
For `O=C(O)c1ccccc1O` [SALICYLIC ACID], the “Cp(f)” value (Plasma) was 5.6 µM, the Vdu (Brain) was 1 mL and the Kp at 4 h (in vivo [1]; brain) was 0.05. The Kp uu at 4 h (in vivo [2]; brain) was 0.19, the Kp uu at 4 h (in vivo [3]; csf) was 0.16 and the fraction unbound at 4 h (in vitro) was 0.28. It also gave a Kp uu (clinical) of 0.19.
For `CN(C)CCC=C1c2ccccc2CCc2ccccc21` [AMITRIPTYLINE], the “Cp(f)” value (Plasma) was 0.022 µM, the Vdu (Brain) was 310 mL and the Kp at 4 h (in vivo [1]; brain and plasma) was 20.1. For the same compound, the Kp uu at 4 h (in vivo [2]; brain and plasma) was 0.73, the Kp uu at 4 h (in vivo [3]; CSF and plasma) was 0.17 and the fraction unbound at 4 h (in vitro) was 0.09. The Kp uu (clinical) was 0.18.
With `CO[C@@]1(NC(=O)C(C(=O)O)c2ccc(O)cc2)C(=O)N2C(C(=O)O)=C(CSc3nnnn3C)CO[C@@H]21` (some centres not stated) [MOXALACTAM] the “Cp(f)” value (Plasma) was 3.8 µM, the Vdu (Brain) was 0.57 mL and the Kp at 4 h (in vivo [1]; brain) was 0.003. For the same compound, the Kp uu at 4 h (in vivo [2]; brain) was 0.019, the Kp uu at 4 h (in vivo [3]; csf) was 0.02 and the fraction unbound at 4 h (in vitro) was 0.32. The Kp uu (clinical) was 0.41.
In the case of `Cc1c(O)cccc1C(=O)N[C@@H](CSc1ccccc1)[C@H](O)CN1C[C@H]2CCCC[C@H]2C[C@H]1C(=O)NC(C)(C)C`, the “Cp(f)” value (Plasma) is reported as 0.0019 µM, the Vdu (Brain) is reported as 860 mL and the BPR [4] is reported as 0.04. It also gave a Kp uu at 4 h (in vivo [2]; brain and plasma) of 0.019, a Kp uu at 4 h (in vivo [3]; CSF and plasma) of 0.067 and a Kp uu (clinical) of 0.045.
In the case of `COCCc1ccc(OCC(O)CNC(C)C)cc1` (configuration not stated) [METOPROLOL], the “Cp(f)” value (Plasma) is reported as 0.75 µM and the fraction unbound at 4 h (in vitro) is reported as 0.9.
In the case of `COc1ccc2c(c1)c(CC(=O)O)c(C)n2C(=O)c1ccc(Cl)cc1` [INDOMETHACIN], the “Cp(f)” value (Plasma) is reported as 0.2 µM, the Vdu (Brain) is reported as 14 mL and the Kp at 4 h (in vivo [1]; brain) is reported as 0.01. For the same compound, the Kp uu at 4 h (in vivo [2]; brain) was 0.11, the Kp uu at 4 h (in vivo [3]; csf) was 0.17 and the fraction unbound at 4 h (in vitro) was 0.01. It also gave a Kp uu (clinical) of 0.27.
For `CCCC(C)C1(CC)C(=O)NC(=S)NC1=O` (configuration not stated) [THIOPENTAL], the “Cp(f)” value (Plasma) was 0.55 µM and the fraction unbound at 4 h (in vitro) was 0.19.
With `CN(Cc1cnc2nc(N)nc(N)c2n1)c1ccc(C(=O)N[C@@H](CCC(=O)O)C(=O)O)cc1` [METHOTREXATE] the “Cp(f)” value (Plasma) was 2.9 µM, the Vdu (Brain) was 0.68 mL and the Kp at 4 h (in vivo [1]; brain) was 0.004. The Kp uu at 4 h (in vivo [2]; brain) was 0.006, the Kp uu at 4 h (in vivo [3]; csf) was 0.007 and the fraction unbound at 4 h (in vitro) was 1. The Kp uu (clinical) was 0.062.
For `CO[C@H]1/C=C/O[C@@]2(C)Oc3c(C)c(O)c4c(O)c(c(/C=N/N5CCN(C)CC5)c(O)c4c3C2=O)NC(=O)/C(C)=C\C=C\[C@H](C)[C@H](O)[C@@H](C)[C@@H](O)[C@@H](C)[C@H](OC(C)=O)[C@@H]1C` [RIFAMPIN], the “Cp(f)” value (Plasma) was 0.83 µM and the fraction unbound at 4 h (in vitro) was 0.12.
For `CC(C)NCC(O)COc1cccc2[nH]ccc12` (configuration not stated) [PINDOLOL], the “Cp(f)” value (Plasma) was 0.16 µM, the Kp at 4 h (in vivo [1]; brain and plasma) was 1.56 and the Kp uu at 4 h (in vivo [2]; brain and plasma) was 0.5. For the same compound, the Kp uu at 4 h (in vivo [3]; CSF and plasma) was 0.11, the fraction unbound at 4 h (in vitro) was 0.43 and the Kp uu (clinical) was 0.52.
With `CC(C)NCC(O)COc1cccc2ccccc12` (configuration not stated) [PROPRANOLOL] the “Cp(f)” value (Plasma) was 0.051 µM, the Vdu (Brain) was 118 mL and the Kp at 4 h (in vivo [1]; brain and plasma) was 6.59. It also gave a Kp uu at 4 h (in vivo [2]; brain and plasma) of 0.61, a Kp uu at 4 h (in vivo [3]; CSF and plasma) of 0.49 and a fraction unbound at 4 h (in vitro) of 0.09. For the same compound, the Kp uu (clinical) was 0.42.
In the case of `CCC(C(N)=O)(C(N)=O)c1ccccc1` [PHENYLETHYLMALONAMIDE], the “Cp(f)” value (Plasma) is reported as 4.3 µM, the Vdu (Brain) is reported as 0.9 mL and the Kp at 4 h (in vivo [1]; brain and plasma) is reported as 0.64. It also gave a Kp uu at 4 h (in vivo [2]; brain and plasma) of 1.25, a Kp uu at 4 h (in vivo [3]; CSF and plasma) of 1.4 and a fraction unbound at 4 h (in vitro) of 0.55.
For `CN1CC[C@]23c4c5ccc(O[C@@H]6O[C@H](C(=O)O)[C@@H](O)[C@H](O)[C@H]6O)c4O[C@H]2[C@@H](O)C=C[C@H]3[C@H]1C5` [MORPHINE 3-GLUCURONIDE], the “Cp(f)” value (Plasma) was 2.7 µM, the Vdu (Brain) was 0.6 mL and the Kp at 4 h (in vivo [1]; brain and plasma) was 0.007. The Kp uu at 4 h (in vivo [2]; brain and plasma) was 0.011, the Kp uu at 4 h (in vivo [3]; CSF and plasma) was 0.049 and the fraction unbound at 4 h (in vitro) was 1. The Kp uu (clinical) was 0.081.
With `CN1CC[C@]23c4c5ccc(O)c4O[C@H]2[C@@H](O[C@@H]2O[C@H](C(=O)O)[C@@H](O)[C@H](O)[C@H]2O)C=C[C@H]3[C@H]1C5` [MORPHINE GLUCURONIDE] the “Cp(f)” value (Plasma) was 2.1 µM, the Vdu (Brain) was 0.99 mL and the Kp at 4 h (in vivo [1]; brain and plasma) was 0.008. The Kp uu at 4 h (in vivo [2]; brain and plasma) was 0.008, the Kp uu at 4 h (in vivo [3]; CSF and plasma) was 0.017 and the fraction unbound at 4 h (in vitro) was 0.98. It also gave a Kp uu (clinical) of 0.1.
For `CC(C)Nc1cccnc1N1CCN(C(=O)c2cc3cc(NS(C)(=O)=O)ccc3[nH]2)CC1` [DELAVIRDINE], the “Cp(f)” value (Plasma) was 0.017 µM, the Vdu (Brain) was 40 mL and the Kp at 4 h (in vivo [1]; brain) was 0.03. The Kp uu at 4 h (in vivo [2]; brain) was 0.043, the Kp uu at 4 h (in vivo [3]; csf) was 0.051 and the fraction unbound at 4 h (in vitro) was 0.016. It also gave a Kp uu (clinical) of 0.23.

Source: ChEMBL document CHEMBL1795238, “Structure-brain exposure relationships in rat and human using a novel data set of unbound drug concentrations in brain interstitial and cerebrospinal fluids” (J Med Chem, 2009)
